We go through 34 compounds from patent US20240279236A1, “COMPOUNDS AND METHODS OF TREATING TUBERCULOSIS” (Fimbrion Therapeutics, Inc., priority 2021, published 2024).

In general, IC50 refers to the concentration that inhibits the measured activity by half.

The experiment relates to WT Mtb Erdman strain. Kind of experiment: Microplate Alamar Blue Assay (MABA), Mtb growth inhibition. In kind it is cell-based, Mycobacterium tuberculosis. The note with it: Mycobacterium tuberculosis, ERDMAN, 168 h, Middlebrook 7H9 media, 7 days at 37° C. in 5% CO2. (In general: Resazurin is reduced to fluorescent resorufin, in cell work by metabolically active cells.)
Turning to `CCc1nc(NCCCc2ccc(-c3cc(Cl)cc(Cl)c3)cc2)c2cc(C)sc2n1` [Example 308, N-(3-(3′,5′-dichloro-[1,1′-biphenyl]-4-yl)propyl)-2-ethyl-6-methylthieno[2,3-d]pyrimidin-4-amine], the midpoint of inhibition, the IC50, lay at 240 nM.

Compound `CCc1nc(NCCCc2ccc(-c3ccc(F)c(Cl)c3)cc2)c2cc(C)sc2n1` [Example 309, N-(3-(3′-chloro-4′-fluoro-[1,1′-biphenyl]-4-yl)propyl)-2-ethyl-6-methylthieno[2,3-d]pyrimidin-4-amine] yielded an IC50 of 100 nM.

In turn, `CCc1nc(NCCCc2ccc(-c3cc(Cl)ccc3Cl)cc2)c2cc(C)sc2n1` [Example 310, N-(3-(2′,5′-dichloro-[1,1′-biphenyl]-4-yl)propyl)-2-ethyl-6-methylthieno[2,3-d]pyrimidin-4-amine] came in with an IC50 of 380 nM.

On to `CCc1nc(NCCCc2ccc(-c3ccc(C(F)(F)F)cc3)cc2)c2cc(C)sc2n1` [Example 311, 2-ethyl-6-methyl-N-(3-(4′-(trifluoromethyl)-[1,1′-biphenyl]-4-yl)propyl)thieno [2,3-d]pyrimidin-4-amine], for which the IC50 came out at 27 nM.

Regarding `Cc1cc2c(NCCCCc3ccc(-c4ccc(OC(F)(F)F)cc4)cc3)nc(-c3ccoc3)nc2s1` [Example 312, 2-(furan-3-yl)-6-methyl-N-(4-(4′-(trifluoromethoxy)-[1,1′-biphenyl]-4-yl)butyl)thieno [2,3-d]pyrimidin-4-amine], the IC50 came out at 380 nM.

In the case of `Cc1cc2c(NCCCc3ccc(-c4ccc(OC(F)(F)F)cc4)cc3F)nc(-c3ccoc3)nc2s1` [Example 313, N-(3-(3-fluoro-(trifluoromethoxy)-[1,1′-biphenyl]-4-′-yl)propyl)-2-(furan-3-yl)-6-methylthieno[2,3-d]pyrimidin-4-amine], 50 nM corresponded to half-maximal inhibition (IC50).

Compound `Cc1cc2c(NCCCc3ccc(-c4ccc([N+](=O)[O-])cc4)cc3)nc(N(C)C)nc2s1` [Example 314, N2,N2,6-trimethyl-N4-(3-(4′-nitro-[1,1′-biphenyl]-4-yl)propyl)thieno [2,3-d]pyrimidine-2,4-diamine] yielded an IC50 of 3 nM.

In turn, `Cc1cc2c(NCCCc3ccc(-c4ccc(OC(F)(F)F)cc4)c(F)c3)nc(-c3ccoc3)nc2s1` [Example 315, N-(3-(2-fluoro-4′-(trifluoromethoxy)-[1,1′-biphenyl]-4-yl)propyl)-2-(furan-3-yl)-6-methylthieno[2,3-d]pyrimidin-4-amine] registered an IC50 of 12 nM.

On to `COC(=O)c1ccc(-c2ccc(CCCNc3nc(-c4ccoc4)nc4sc(C)cc34)cc2)cc1` [Example 318, methyl 4′-(3-((2-(furan-3-yl)-6-methylthieno[2,3-d]pyrimidin-4-yl)amino)propyl)-[1,1′-biphenyl]-4-carboxylate], for which inhibition was half-maximal at 20 nM (IC50).

In the case of `Cc1cc2c(NCCCc3ccc(-c4ccc(F)cc4)cc3)nc(-c3ccoc3)nc2s1` [Example 322, N-(3-(4′-fluoro-[1,1′-biphenyl]-4-yl)propyl)-2-(furan-3-yl)-6-methylthieno[2,3-d]pyrimidin-4-amine], the IC50 was 6 nM.

As to `Cc1cc2c(NC/C=C/c3ccc(-c4ccc(OC(F)(F)F)cc4)cc3)nc(-c3ccoc3)nc2s1` [Example 323, 2-(furan-3-yl)-6-methyl-N-[(2E)-3-[4′-(trifluoromethoxy)-[1,1′-biphenyl]-4-yl]prop-2-en-1-yl]thieno[2,3-d]pyrimidin-4-amine], the IC50 came out at 37 nM.

Compound `Cc1cc2c(NCCCc3ccc(-c4ccnc(C(F)(F)F)c4)cc3)nc(-c3ccoc3)nc2s1` [Example 324, 2-(furan-3-yl)-6-methyl-N-(3-(4-[2-(trifluoromethyl)pyridin-4-yl]phenyl)propyl) thieno[2,3-d]pyrimidin-4-amine] showed an IC50 of 160 nM.

As for `Cc1cc2c(NCCCc3ccc(-c4ccc(N(C)C)cc4)cc3)nc(-c3ccoc3)nc2s1` [Example 325, N-(3-[4′-(dimethylamino)-[1,1′-biphenyl]-4-yl]propyl)-2-(furan-3-yl)-6-methylthieno[2,3-d]pyrimidin-4-amine], the IC50 worked out at 10 nM.

Take `Cc1cc2c(NCCCc3ccc(-c4ccc(OC5CC5)cc4)cc3)nc(-c3ccoc3)nc2s1` [Example 326, N-(3-(4′-cyclopropoxy-[1,1′-biphenyl]-4-yl)propyl)-2-(furan-3-yl)-6-methylthieno[2,3-d]pyrimidin-4-amine]: the IC50 worked out at 15 nM.

As to `Cc1cc2c(NCCCc3ccc(-c4cccc(C#N)c4)cc3)nc(-c3ccoc3)nc2s1` [Example 327, 4′-(3-([2-(furan-3-yl)-6-methylthieno[2,3-d]pyrimidin-4-yl]amino)propyl)-[1,1′-biphenyl]-3-carbonitrile], the IC50 amounted to 100 nM.

Turning to `Cc1cc2c(NCCCc3ccc(-c4ccc([N+](=O)[O-])cc4)cc3)nc(-c3ccoc3)nc2s1` [Example 328, 2-(furan-3-yl)-6-methyl-N-(3-(4′-nitro-[1,1′-biphenyl]-4-yl)propyl)thieno [2,3-d]pyrimidin-4-amine], the IC50 is less than 1 nM.

Turning to `Cc1cc2c(NCCCc3ccc(-c4ccc5c(ccn5C)c4)cc3)nc(-c3ccoc3)nc2s1` [Example 329, 2-(furan-3-yl)-6-methyl-N-(3-[4-(1-methyl-1H-indol-5-yl)phenyl]propyl) thieno[2,3-d]pyrimidin-4-amine], the midpoint of inhibition, the IC50, lay at 34 nM.

The compound `Cc1cc2c(NCCCc3ccc(-c4cccs4)cc3)nc(-c3ccoc3)nc2s1` [Example 330, 2-(furan-3-yl)-6-methyl-N-(3-[4-(thiophen-2-yl)phenyl]propyl) thieno[2,3-d]pyrimidin-4-amine] came in with an IC50 of less than 5 nM.

In turn, `Cc1cc2c(NCCCc3ccc(-c4cc(F)c(Cl)c(F)c4)cc3)nc(-c3ccoc3)nc2s1` [Example 331, N-(3-(4′-chloro-3′,5′-difluoro-[1,1′-biphenyl]-4-yl)propyl)-2-(furan-3-yl)-6-methylthieno[2,3-d]pyrimidin-4-amine] returned an IC50 of 30 nM.

Compound `Cc1cc2c(NCCCc3ccc(-c4cnoc4)cc3)nc(-c3ccoc3)nc2s1` [Example 332, 2-(furan-3-yl)-6-methyl-N-(3-[4-(1,2-oxazol-4-yl)phenyl]propyl) thieno[2,3-d]pyrimidin-4-amine] displayed an IC50 of 80 nM.

For the compound `C#Cc1ccc(-c2ccc(CCCNc3nc(-c4ccoc4)nc4sc(C)cc34)cc2)cc1` [Example 333, N-(3-(4′-ethynyl-[1,1′-biphenyl]-4-yl)propyl)-2-(furan-3-yl)-6-methylthieno[2,3-d]pyrimidin-4-amine], half-maximal inhibition (IC50) required 12 nM.

In turn, `Cc1cc2c(NCCCc3ccc(-c4ccsc4)cc3)nc(-c3ccoc3)nc2s1` [Example 334, 2-(furan-3-yl)-6-methyl-N-(3-[4-(thiophen-3-yl)phenyl]propyl) thieno[2,3-d]pyrimidin-4-amine] yielded an IC50 of 8 nM.

Consider `Cc1ccc(-c2ccc(CCCNc3nc(-c4ccoc4)nc4sc(C)cc34)cc2)o1` [Example 335, 2-(furan-3-yl)-6-methyl-N-(3-[4-(5-methylfuran-2-yl)phenyl]propyl) thieno[2,3-d]pyrimidin-4-amine], for which the IC50 was 87 nM.

Regarding `Cc1ccc(-c2ccc(CCCNc3nc(-c4ccoc4)nc4sc(C)cc34)cc2)s1` [Example 336, 2-(furan-3-yl)-6-methyl-N-(3-[4-(5-methylthiophen-2-yl)phenyl]propyl)thieno[2,3-d]pyrimidin-4-amine], the IC50 worked out at 15 nM.

Take `Cc1cc2c(NCCCc3ccc(-c4ccco4)cc3)nc(-c3ccoc3)nc2s1` [Example 337, N-(3-[4-(furan-2-yl)phenyl]propyl)-2-(furan-3-yl)-6-methylthieno[2,3-d]pyrimidin-4-amine]: the IC50 worked out at 31 nM.

Turning to `Cc1cc2c(NCCCc3ccc(-c4ccoc4)cc3)nc(-c3ccoc3)nc2s1` [Example 338, 2-(furan-3-yl)-N-(3-[4-(furan-3-yl)phenyl]propyl)-6-methylthieno[2,3-d]pyrimidin-4-amine], the IC50 is 15 nM.

In the case of `Cc1cc2c(NCCCc3ccc(-c4ccc(C(F)(F)F)cc4)cc3)nc(-c3ccoc3)nc2s1` [Example 339, 2-(furan-3-yl)-6-methyl-N-(3-[4′-(trifluoromethyl)-[1,1′-biphenyl]-4-yl]propyl)thieno [2,3-d]pyrimidin-4-amine], the IC50 was less than 15 nM.

Regarding `Cc1cc2c(NCCCc3ccc(-c4cccc([N+](=O)[O-])c4)cc3)nc(-c3ccoc3)nc2s1` [Example 340, 2-(furan-3-yl)-6-methyl-N-(3-(3′-nitro-[1,1′-biphenyl]-4-yl)propyl)thieno [2,3-d]pyrimidin-4-amine], inhibition was half-maximal at 25 nM (IC50).

As to `Cc1cc2c(NCCCc3ccc(-c4ccc(C(C)(C)O)cc4)cc3)nc(-c3ccoc3)nc2s1` [Example 341, 2-[4′-(3-([2-(furan-3-yl)-6-methylthieno[2,3-d]pyrimidin-4-yl]amino)propy1)-[1,1′-biphenyl]-4-yl]propan-2-ol], half-maximal inhibition (IC50) was put at 140 nM.

For the compound `Cc1cc2c(NCCCc3ccc(-c4ccc5nonc5c4)cc3)nc(-c3ccoc3)nc2s1` [Example 343, N-(3-[4-(2,1,3-benzoxadiazol-5-yl)phenyl]propyl)-2-(furan-3-yl)-6-methylthieno[2,3-d]pyrimidin-4-amine], the IC50 was less than 15 nM.

In the case of `Cc1cc2c(NCCCc3ccc(-c4cnc(F)c(C)c4)cc3)nc(-c3ccoc3)nc2s1` [Example 344, N-(3-[4-(6-fluoro-5-methylpyridin-3-yl)phenyl]propyl)-2-(furan-3-yl)-6-methylthieno[2,3-d]pyrimidin-4-amine], the IC50 is 74 nM.

`CCc1nc(NCCCc2ccc(-c3ccccn3)cc2)c2cc(C)sc2n1` [Example 368, 2-ethyl-6-methyl-N-(3-(4-(pyridin-2-yl)phenyl)propyl) thieno[2,3-d] pyrimidin-4-amine] registered an IC50 of 210 nM.

`CCc1nc(NCCCc2ccc(-c3cnc(C(F)(F)F)cn3)cc2)c2cc(C)sc2n1` [Example 369, 2-ethyl-6-methyl-N-(3-(4-(5-(trifluoromethyl)pyrazin-2-yl)phenyl)propyl)thieno[2,3-d]pyrimidin-4-amine] registered an IC50 of 21 nM.

Take `CCc1nc(NCCCc2ccc(-c3ccc(C(F)(F)F)cn3)cc2)c2cc(C)sc2n1` [Example 370, 2-ethyl-6-methyl-N-(3-(4-(5-(trifluoromethyl)pyridin-2-yl)phenyl)propyl)thieno[2,3-d]pyrimidin-4-amine]: the IC50 worked out at 25 nM.
